Assays:
[1] = biological target: T1, B2 bradykinin receptor (Homo sapiens) (UniProt P30411); assay: Binding affinity towards human bradykinin B2 receptor (membranes from Cos-7 cells expressing human B2 receptor) using [3H]BK as radioligand; assay type: cell membranes; settings: concentration not given here
T1 sequence (whole entry): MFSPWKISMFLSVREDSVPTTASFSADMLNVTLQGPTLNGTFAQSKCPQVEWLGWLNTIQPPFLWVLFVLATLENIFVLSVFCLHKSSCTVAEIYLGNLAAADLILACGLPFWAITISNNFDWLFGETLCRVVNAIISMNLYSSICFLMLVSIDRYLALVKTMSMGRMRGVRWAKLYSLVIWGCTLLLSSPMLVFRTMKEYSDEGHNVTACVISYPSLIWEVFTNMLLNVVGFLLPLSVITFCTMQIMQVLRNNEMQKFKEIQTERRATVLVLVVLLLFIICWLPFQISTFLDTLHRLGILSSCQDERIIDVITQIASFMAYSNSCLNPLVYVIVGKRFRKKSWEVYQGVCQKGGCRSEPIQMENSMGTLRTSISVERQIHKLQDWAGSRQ

[2] = biological target: T2, B2 bradykinin receptor (Homo sapiens, UniProt P30411); assay: Binding affinity towards human bradykinin B2 receptor (membranes from Cos-7 cells expressing human B2 receptor) using [3H]-BK as radioligand; assay type: cell membranes
T2 sequence (P30411 whole entry): T1 sequence (whole entry)

| SMILES | inhibition [1] | Ki [2] |
| --- | --- | --- |
| NCCCCN1C(=O)C(Cc2ccccc2)N=C(c2ccccc2)c2ccccc21 (centres undefined) | 26% | – |
| N=C(N)Nc1ccc(N2C(=O)C(Cc3ccccc3)N=C(c3ccccc3)c3ccccc32)cc1 (centres undefined) | – | 9.2 µM |
| O=C1Nc2ccccc2C(c2ccccc2)=NC1Cc1ccccc1 (centres undefined) | – | > 100 µM |
| O=C(O)CN1C(=O)C(Cc2ccccc2)N=C(c2ccccc2)c2ccccc21 (centres undefined) | – | > 100 µM |
| Nc1cccc(CN2C(=O)C(Cc3ccccc3)N=C(c3ccccc3)c3ccccc32)c1 (centres undefined) | – | > 100 µM |
| NC(N)=Nc1cccc(CN2C(=O)C(Cc3ccccc3)N=C(c3ccccc3)c3ccccc32)c1 (centres undefined) | – | 8.9 µM |
| N=C(N)Nc1cccc(CN2C(=O)[C@@H](Cc3ccccc3)N=C(c3ccccc3)c3ccccc32)c1 | – | 11.9 µM |
| NC(N)=Nc1cccc(CN2C(=O)[C@H](Cc3ccccc3)N=C(c3ccccc3)c3ccccc32)c1 | – | 15.8 µM |
| N=C(N)NCCCCN1C(=O)C(Cc2ccccc2)N=C(c2ccccc2)c2ccccc21 (centres undefined) | – | 21.3 µM |

From ChEMBL document CHEMBL1131934, “The design of non-peptide human bradykinin B2 receptor antagonists employing the benzodiazepine peptidomimetic scaffold” (Bioorg Med Chem Lett, 1999)
